Measured values published in patent US11976058B2, “Aromatic derivatives, preparation methods, and medical uses thereof” (Bioardis LLC, priority 2019, dated 2024).
pIC50: −log10 of the molar value. Where two headings read alike, the source gives them in different places.

Columns and labels:
human FGFR4 = target: T1, human FGFR4 (Homo sapiens, UniProt P22455); test: FGFR4 enzymatic assay (HTRF KinEASE-TK); assay type: biochemical; conditions: wild-type human FGFR4 cytoplasmic domain (460-802), GST-tag; 60 min preincubation at 25° C.; ATP 200 μM; read-out: Potency (IC50), FGFR4 enzymatic assay
T1 construct: human FGFR4 cytoplasmic domain (460-802); GST (N); purchased Carna Biosciences 08-136
Experimental: The ability of compounds to inhibit human FGFR4 tyrosine kinase activities was determined using a commercially available HTRF® KinEASE™-TK kit (CISBIO, Cat #62TK0PEC) according to the manufacturer's protocol. Wild-type human FGFR4 cytoplasmic domain (460-802) with N-terminal GST-tag was purchased from Carna Biosciences (Carna, Cat #08-136) and used in the kinase enzymatic assay. This assay, run in a 384-well plate format, is a generic method for measuring tyrosine kinase activities using one substrate and a universal detection system. It involves two steps: (1) Enzymatic step: the biotin labeled TK Substrate is incubated with the kinase and then ATP is added to start the enzymatic reaction; during this step, FGFR4 will phosphorylate the TK Substrate-biotin. (2) Detection step: The TK-Antibody labeled with Eu^3+-Cryptate can recognize the phosphorylated TK Substrate-biotin. When the streptavidin-XL665 conjugate binds the biotin, a FRET signal will be detected. Briefly, human FGFR4 (0.25 μg/ml) in the enzymatic buffer solutions (250 mM HEPES, pH7.0, 0.1% NaN3, 0.05% BSA, 0.5 mM Orthovanadate) were mixed with various concentrations of the test compound (dissolved in 100% DMSO). These solutions were incubated for 60 min at 25° C., and subsequently a mixture of substrate peptide and ATP was added with the final peptide and ATP concentrations at 0.3 μM and 200 μM respectively. The final reaction mixture of enzyme-substrate-ATP-compound was incubated for 40 min at 37° C. Meanwhile the detection mixture containing the TK-antibody and Streptavidin-XL665 diluted in the detection buffer (50 mM HEPES, pH7.0, with additives) was prepared, and added to the reaction mixture at final concentrations of 25 nM and 18.5 nM respectively. After incubation for 60 min at 25° C., the FRET signal of the final solution was measured at 665 nm and 612 nm emissions on a TECAN Spark 10M instrument (TECAN). The percent (%) inhibition at each concentration of a compound was calculated relative to the FRET signal in the Max and Min control wells contained within each assay plate. The Max control wells contained enzyme and substrate as 0% inhibition, and the Min control wells only contained substrate without enzyme as 100% inhibition. The concentrations and percent inhibition values for a test compound are plotted and the concentration of the compound required to achieve 50% inhibition (IC50) was determined with a four-parameter logistic dose response equation. Dose-response curves were generated using Prism (GraphPad Software, La Jolla, CA, US) to calculate IC50 values for each compound tested.

Hep3B cells = test: Cell-based FGFR4 proliferation assay (CellTiter-Glo); conditions: incubated with test compound for 3 days, CellTiter-Glo luminescence, read-out: Potency (IC50), Hep3B cell proliferation
Experimental: Hepatocellular carcinoma cell line Hep3B (ATCC, Cat #HB-8064) were cultured at 37° C., 5% CO2 in ATCC-formulated Eagle's Minimum Essential Medium supplemented with 10% fetal bovine serum; 1% Penicillin-Streptomycin.
(§1) Cell line: Hepatocellular carcinoma cell line Hep3B (ATCC, Cat #HB-8064).
In this assay, Hep3B cells are seeded in 384-well microplates, and after exposure to experimental compounds for […], CellTiter-Glo® Luminescent Cell Viability Assay kit (Promega, Cat #G7572) are used to determine the number of viable cells in the culture based on quantitation of the ATP present, which signals the presence of metabolically active cells. Luminescent signal is proportional to the amount of ATP present. The amount of ATP is directly proportional to the number of cells present in the culture, allowing drug-induced effects on cell proliferation to be measured.
Hep3B cells were plated at a density of 4×10^4/ml cells in a 384-well black/clear microplate with 20 μL per well of MEM Medium (Gibco Cat. #11095-080) supplemented with 10% fetal bovine serum; 1% Penicillin-Streptomycin, and cultured overnight at 37° C., 5% CO2. Various concentrations of the test compound (dissolved in 100% DMSO) were added to the wells of the cell plate. The cells were incubated with the test compound for 3 days at 37° C., 5% CO2. 5 μL of CellTiter-Glo® Reagent was added to each well of the cell plate. The cell plate was incubated for 5 min at 25° C. on a plate shaker (IKA MTS 2/4) at 300 rpm. Luminescence signals were read on a TECAN Spark 10M instrument (TECAN). […] The concentrations and percent inhibition values for a test compound were plotted and the concentration of the compound required to achieve 50% inhibition (IC50) is determined with a four-parameter logistic dose response equation. Dose-response curves were generated using Prism (GraphPad Software, La Jolla, CA, US) to calculate IC50 values for each compound tested.

[1] = system: MAPK phosphorylation in Hep3B cells stimulated with FGF19; test: FGFR4 pMAPK AlphaLISA SureFire Ultra assay; assay type: cell-based; conditions: serum-starved, compound 1 hour, FGF19 100 ng/ml for 4 hours, read-out: Potency (IC50), FGFR4 pMAPK AlphaLISA
Description: as §1
In normal liver, circulating FGF19 drives liver cell proliferation and regulates bile acid production. However aberrant expression of FGF19 in the liver drives HCC tumorigenesis, upregulates MAPK phosphorylation in FGF19-amplified malignant liver cells. AlphaScreen SureFire technology allows the detection of phosphorylated proteins in cellular lysates in a highly sensitive, quantitative assay. In these assays, sandwich antibody complexes, which are only formed in the presence of analyte, are captured by AlphaScreen Donor and Acceptor beads, bringing them into close proximity. The excitation of the Donor bead provokes the release of singlet oxygen molecules that triggers a cascade of energy transfer in the Acceptor beads, resulting in the emission of light at 520-620 nm.
Hep3B cells were plated at a density of 1×10^4/ml cells in a 96-well plate (Corning #3599), with 100 uL per well of MEM Medium (Gibco Cat #11095-080) supplemented with 10% fetal bovine serum; 1% Penicillin-Streptomycin, and cultured overnight at 37° C., 5% CO2. Starve Hep3B cells in serum-free medium (SFM) supplemented with 0.2% BSA and incubate the cells again overnight at 37° C., 5% CO2. Various concentrations of the test compound (prepared in 2x SFM) were added to the wells of the cell plate and then incubated for 1 hour at 37° C., 5% CO2. 50 μL of FGF19 in SFM was added to each well of the cell plate with a final FGF19 concentration of 100 ng/ml, and cells treated with FGF19 were stimulated for 4 hours at 37° C., 5% CO2. 5 μL of freshly prepared Donor Mix and Acceptor Mix were sequentially added to the cell plate, each followed with 1 hour of incubation at 25° C., 5% CO2. Read the cell plate on an Alpha Technology-compatible plate reader at 570 nm AlphaScreen, using standard AlphaLISA settings. The percent (%) inhibition=((ZPE−Alpha-Signal)/(ZPE−HPE))*100% where the meanings of HPE and ZPE are as provided below.
HPE: Hundred Percent Effect, negative control well without FGF19 nor compound. Final concentration of DMSO is 0.1%.
ZPE: Zero Percent Effect, positive control well without compound. Final concentration of FGF19 is 100 ng/mL, DMSO is 0.1%.
The concentrations and percent inhibition values for a test compound were plotted and the concentration of the compound required to achieve 50% inhibition (IC50) was determined with a four-parameter logistic dose response equation. Dose-response curves were generated using Prism (GraphPad Software, La Jolla, CA, US) to calculate IC50 values for each compound tested.

T1 sequence (P22455 460-802): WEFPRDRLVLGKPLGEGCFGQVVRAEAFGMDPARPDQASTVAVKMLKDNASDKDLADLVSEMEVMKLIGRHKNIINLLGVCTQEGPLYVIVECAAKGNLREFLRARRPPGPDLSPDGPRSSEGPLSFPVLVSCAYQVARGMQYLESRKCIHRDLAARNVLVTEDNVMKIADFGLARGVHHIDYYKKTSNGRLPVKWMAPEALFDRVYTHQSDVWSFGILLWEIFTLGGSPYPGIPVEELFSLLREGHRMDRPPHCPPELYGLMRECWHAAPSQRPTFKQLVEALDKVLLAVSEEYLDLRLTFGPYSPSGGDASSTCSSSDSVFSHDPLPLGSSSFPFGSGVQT

| Structure (SMILES) | pIC50 (human FGFR4) | pIC50 (Hep3B cells; Homo sapiens, Hep3B, 72 h) | pIC50 ([1]; Homo sapiens, Hep3B) | pIC50 (Hep3B cells) | pIC50 [1] |
| --- | --- | --- | --- | --- | --- |
| C=CC(=O)Nc1cnn(C)c1-c1n[nH]c2c1CCC(c1c(F)c(OC)cc(OC)c1F)C2 (single isomer, unassigned) [Compound S1-P1, N-(5-(6-(2,6-difluoro-3,5-dimethoxyphenyl)-4,5,6,7-tetrahydro-1H-indazol-3-yl)-1-methyl-1H-pyrazol-4-yl)acrylamide] | > 8.00 | 7.00 to 8.00 | > 8.00 |  |  |
| C=CC(=O)Nc1cnn(C)c1-c1n[nH]c2c1CCC(c1c(F)c(OC)cc(OC)c1F)C2 (single isomer, unassigned) [Compound S1-P2, N-(5-(6-(2,6-difluoro-3,5-dimethoxyphenyl)-4,5,6,7-tetrahydro-1H-indazol-3-yl)-1-methyl-1H-pyrazol-4-yl)acrylamide] | > 8.00 |  |  | 7.00 to 8.00 | > 8.00 |
| C=CC(=O)Nc1ncn(C)c1-c1n[nH]c2c1CCC(c1c(F)c(OC)cc(OC)c1F)C2 (single isomer, unassigned) [Compound S3-P1, N-(5-(6-(2,6-Difluoro-3,5-dimethoxyphenyl)-4,5,6,7-tetrahydro-1H-indazol-3-yl)-1-methyl-1H-imidazol-4-yl) Acrylamide] | < 7.00 | < 7.00 |  |  |  |
| C=CC(=O)Nc1ncn(C)c1-c1n[nH]c2c1CCC(c1c(F)c(OC)cc(OC)c1F)C2 (single isomer, unassigned) [Compound S3-P2, N-(5-(6-(2,6-Difluoro-3,5-dimethoxyphenyl)-4,5,6,7-tetrahydro-1H-indazol-3-yl)-1-methyl-1H-imidazol-4-yl) Acrylamide] | 7.00 to 8.00 |  | < 7.00 | < 7.00 |  |
| C=CC(=O)Nc1cnn(C)c1-c1n[nH]c2c1CCC[C@@H](c1c(F)c(OC)cc(OC)c1F)C2 (single isomer, unassigned) [Compound S4-P1] | > 8.00 | > 8.00 | > 8.00 |  |  |
| C=CC(=O)Nc1cnn(C)c1-c1n[nH]c2c1COC(c1c(F)c(OC)cc(OC)c1F)C2 (single isomer, unassigned) [Compound S6-P1, N-(5-(6-(2,6-difluoro-3,5-dimethoxyphenyl)-1,4,6,7-tetrahydropyrano[4,3-c]pyrazol-3-yl)-1-methyl-1H-pyrazol-4-yl) acrylamide] | < 7.00 | < 7.00 |  |  |  |
| C=CC(=O)Nc1cnn(C)c1-c1n[nH]c2c1COC(c1c(F)c(OC)cc(OC)c1F)C2 (single isomer, unassigned) [Compound S6-P2, N-(5-(6-(2,6-difluoro-3,5-dimethoxyphenyl)-1,4,6,7-tetrahydropyrano[4,3-c]pyrazol-3-yl)-1-methyl-1H-pyrazol-4-yl) acrylamide] | 7.00 to 8.00 |  | 7.00 to 8.00 | < 7.00 |  |
| [2H]C([2H])([2H])Oc1cc(OC([2H])([2H])[2H])c(F)c(C2CCc3c(-c4c(NC(=O)C=C)cnn4C)n[nH]c3C2)c1F (single isomer, unassigned) [Compound S8-P1, N-(5-(6-(2,6-difluoro-3,5-bis(methoxy-d3)phenyl)-4,5,6,7-tetrahydro-1H-indazol-3-yl)-1-methyl-1H-pyrazol-4-yl) acrylamide] | > 8.00 | 7.00 to 8.00 | > 8.00 |  |  |
| C=CC(=O)Nc1c[nH]nc1-c1n[nH]c2c1CCC(c1c(F)c(OC)cc(OC)c1F)C2 (single isomer, unassigned) [Compound S15-P2, N-(3-(6-(2,6-difluoro-3,5-dimethoxyphenyl)-4,5,6,7-tetrahydro-1H-indazol-3-yl)-1H-pyrazol-4-yl)acrylamide] | > 8.00 |  |  | > 8.00 |  |
| [2H]C([2H])([2H])n1ncc(NC(=O)C=C)c1-c1n[nH]c2c1CCC(c1c(F)c(OC)cc(OC)c1F)C2 (single isomer, unassigned) [Compound S16-P2, N-(5-(6-(2,6-difluoro-3,5-dimethoxyphenyl)-4,5,6,7-tetrahydro-1H-indazol-3-yl)-1-(methyl-d3)-1H-pyrazol-4-yl)acrylamide] | > 8.00 |  |  | 7.00 to 8.00 |  |
| C=CC(=O)Nc1cn(CCN(C)C)nc1-c1n[nH]c2c1CCC[C@H](c1c(F)c(OC)cc(OC)c1F)C2 [Compound S31, (S)—N-(3-(7-(2,6-difluoro-3,5-dimethoxyphenyl)-1,4,5,6,7,8-hexahydrocyclohepta[c]pyrazol-3-yl)-1-(2-(dimethylamino)ethyl)-1H-pyrazol-4-yl)acrylamide] | > 8.00 | 7.00 to 8.00 |  |  |  |
| C=CC(=O)Nc1cn(CCN(C)C)nc1-c1n[nH]c2c1CCC[C@@H](c1c(F)c(OC)cc(OC)c1F)C2 [Compound S32, (R)—N-(3-(7-(2,6-difluoro-3,5-dimethoxyphenyl)-1,4,5,6,7,8-hexahydrocyclohepta[c]pyrazol-3-yl)-1-(2-(dimethylamino)ethyl)-1H-pyrazol-4-yl)acrylamide] | > 8.00 | > 8.00 |  |  |  |
